Results from ChEMBL document CHEMBL5465560, “Selectivity Literature for EUbOPEN Chemogenomic Library” (2024).
Values belong to the compound of their own block, whether it stands above or below them.

Legend:
[1] = target: Ephrin type-A receptor 2 (Homo sapiens) (UniProt P29317); conditions: at 10 µM
[2] = target: Tyrosine-protein kinase BTK (Homo sapiens, UniProt Q06187); assay: Selectivity interaction (ActivX KiNativ screen (kinase selectivity in THP-1 cell lysates)) EUB0000639a BTK; assay type: subcellular; conditions: lysate, at 0.04 µM
Tyrosine-protein kinase BTK, sequence (Q06187 whole entry): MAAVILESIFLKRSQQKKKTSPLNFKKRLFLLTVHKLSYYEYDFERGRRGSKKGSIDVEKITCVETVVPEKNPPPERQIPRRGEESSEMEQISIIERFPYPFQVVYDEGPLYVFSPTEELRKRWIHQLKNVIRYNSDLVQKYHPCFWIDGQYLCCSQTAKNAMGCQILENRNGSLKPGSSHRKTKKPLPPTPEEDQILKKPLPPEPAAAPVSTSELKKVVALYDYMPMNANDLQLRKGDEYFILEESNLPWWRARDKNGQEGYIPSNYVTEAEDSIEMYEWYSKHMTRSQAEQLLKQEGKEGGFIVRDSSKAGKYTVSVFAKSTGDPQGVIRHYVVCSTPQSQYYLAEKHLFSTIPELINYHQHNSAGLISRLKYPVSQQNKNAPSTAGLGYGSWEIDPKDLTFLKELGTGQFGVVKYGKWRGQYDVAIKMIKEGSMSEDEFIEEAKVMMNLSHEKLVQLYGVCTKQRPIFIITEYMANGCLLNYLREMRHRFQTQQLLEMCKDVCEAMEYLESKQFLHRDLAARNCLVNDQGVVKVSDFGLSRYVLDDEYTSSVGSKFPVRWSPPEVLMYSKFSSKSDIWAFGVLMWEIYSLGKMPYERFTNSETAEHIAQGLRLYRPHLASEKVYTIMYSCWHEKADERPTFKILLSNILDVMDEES

[3] = target: Serine/threonine-protein kinase 16 (Homo sapiens, UniProt O75716); assay: Selectivity interaction (ActivX KiNativ screen (kinase selectivity in THP-1 cell lysates)) EUB0000639a STK16; assay type: subcellular; conditions: lysate, at 1 µM
Serine/threonine-protein kinase 16, sequence (O75716 whole entry): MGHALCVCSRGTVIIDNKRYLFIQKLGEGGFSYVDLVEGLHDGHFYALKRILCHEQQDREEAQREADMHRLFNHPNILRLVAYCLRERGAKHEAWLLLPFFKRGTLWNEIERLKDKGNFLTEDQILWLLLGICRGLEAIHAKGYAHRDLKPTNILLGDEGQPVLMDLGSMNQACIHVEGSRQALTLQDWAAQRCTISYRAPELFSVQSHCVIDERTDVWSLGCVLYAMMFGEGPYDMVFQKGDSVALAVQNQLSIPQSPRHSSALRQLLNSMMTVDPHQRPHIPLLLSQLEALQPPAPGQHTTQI

[4] = target: T1, Dual specificity tyrosine-phosphorylation-regulated kinase 3 (Homo sapiens) (UniProt O43781); assay: Selectivity interaction (ProQinase) EUB0000171b DYRK3
T1 sequence (whole entry): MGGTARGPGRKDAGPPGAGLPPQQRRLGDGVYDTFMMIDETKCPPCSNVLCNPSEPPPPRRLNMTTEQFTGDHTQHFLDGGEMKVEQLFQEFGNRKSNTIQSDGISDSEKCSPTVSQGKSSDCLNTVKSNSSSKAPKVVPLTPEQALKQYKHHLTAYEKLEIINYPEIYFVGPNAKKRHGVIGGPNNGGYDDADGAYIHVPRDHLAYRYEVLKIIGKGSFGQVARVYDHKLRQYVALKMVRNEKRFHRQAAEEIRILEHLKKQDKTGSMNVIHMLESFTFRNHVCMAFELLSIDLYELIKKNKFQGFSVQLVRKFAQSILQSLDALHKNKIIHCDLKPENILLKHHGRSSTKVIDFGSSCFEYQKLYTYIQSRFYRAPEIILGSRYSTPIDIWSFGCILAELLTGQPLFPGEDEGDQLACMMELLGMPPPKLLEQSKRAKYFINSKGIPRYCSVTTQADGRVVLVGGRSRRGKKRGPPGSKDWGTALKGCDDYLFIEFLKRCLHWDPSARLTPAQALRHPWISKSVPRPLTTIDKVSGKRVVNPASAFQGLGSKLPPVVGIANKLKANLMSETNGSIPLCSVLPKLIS

[5] = target: High affinity nerve growth factor receptor (Homo sapiens, UniProt P04629); assay: Selectivity interaction (KinomeScan (DiscoverX)) EUB0000045b NTRK1
High affinity nerve growth factor receptor, sequence (P04629 33-796 limits assumed): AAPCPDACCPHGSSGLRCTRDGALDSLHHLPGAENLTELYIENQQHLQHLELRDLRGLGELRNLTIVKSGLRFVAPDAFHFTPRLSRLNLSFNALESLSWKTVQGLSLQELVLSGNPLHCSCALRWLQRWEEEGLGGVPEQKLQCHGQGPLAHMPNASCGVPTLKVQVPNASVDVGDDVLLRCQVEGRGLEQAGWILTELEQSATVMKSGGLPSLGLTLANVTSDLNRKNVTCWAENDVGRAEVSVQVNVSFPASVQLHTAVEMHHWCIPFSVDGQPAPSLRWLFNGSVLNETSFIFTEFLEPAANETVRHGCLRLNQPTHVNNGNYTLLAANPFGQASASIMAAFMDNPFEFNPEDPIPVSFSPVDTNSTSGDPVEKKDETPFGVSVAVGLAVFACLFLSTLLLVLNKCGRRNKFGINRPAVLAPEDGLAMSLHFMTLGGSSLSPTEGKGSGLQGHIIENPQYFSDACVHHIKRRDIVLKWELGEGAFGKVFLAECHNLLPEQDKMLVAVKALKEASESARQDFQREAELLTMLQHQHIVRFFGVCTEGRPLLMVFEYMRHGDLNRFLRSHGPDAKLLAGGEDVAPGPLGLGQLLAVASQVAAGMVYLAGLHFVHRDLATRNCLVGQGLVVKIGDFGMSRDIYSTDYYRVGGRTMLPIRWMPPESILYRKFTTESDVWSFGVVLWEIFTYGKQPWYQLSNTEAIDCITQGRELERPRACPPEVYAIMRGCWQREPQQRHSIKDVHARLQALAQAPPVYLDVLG

[6] = target: T2, Histone-lysine N-methyltransferase EHMT1 (Homo sapiens) (UniProt Q9H9B1); conditions: at 1 µM
T2 sequence (whole entry): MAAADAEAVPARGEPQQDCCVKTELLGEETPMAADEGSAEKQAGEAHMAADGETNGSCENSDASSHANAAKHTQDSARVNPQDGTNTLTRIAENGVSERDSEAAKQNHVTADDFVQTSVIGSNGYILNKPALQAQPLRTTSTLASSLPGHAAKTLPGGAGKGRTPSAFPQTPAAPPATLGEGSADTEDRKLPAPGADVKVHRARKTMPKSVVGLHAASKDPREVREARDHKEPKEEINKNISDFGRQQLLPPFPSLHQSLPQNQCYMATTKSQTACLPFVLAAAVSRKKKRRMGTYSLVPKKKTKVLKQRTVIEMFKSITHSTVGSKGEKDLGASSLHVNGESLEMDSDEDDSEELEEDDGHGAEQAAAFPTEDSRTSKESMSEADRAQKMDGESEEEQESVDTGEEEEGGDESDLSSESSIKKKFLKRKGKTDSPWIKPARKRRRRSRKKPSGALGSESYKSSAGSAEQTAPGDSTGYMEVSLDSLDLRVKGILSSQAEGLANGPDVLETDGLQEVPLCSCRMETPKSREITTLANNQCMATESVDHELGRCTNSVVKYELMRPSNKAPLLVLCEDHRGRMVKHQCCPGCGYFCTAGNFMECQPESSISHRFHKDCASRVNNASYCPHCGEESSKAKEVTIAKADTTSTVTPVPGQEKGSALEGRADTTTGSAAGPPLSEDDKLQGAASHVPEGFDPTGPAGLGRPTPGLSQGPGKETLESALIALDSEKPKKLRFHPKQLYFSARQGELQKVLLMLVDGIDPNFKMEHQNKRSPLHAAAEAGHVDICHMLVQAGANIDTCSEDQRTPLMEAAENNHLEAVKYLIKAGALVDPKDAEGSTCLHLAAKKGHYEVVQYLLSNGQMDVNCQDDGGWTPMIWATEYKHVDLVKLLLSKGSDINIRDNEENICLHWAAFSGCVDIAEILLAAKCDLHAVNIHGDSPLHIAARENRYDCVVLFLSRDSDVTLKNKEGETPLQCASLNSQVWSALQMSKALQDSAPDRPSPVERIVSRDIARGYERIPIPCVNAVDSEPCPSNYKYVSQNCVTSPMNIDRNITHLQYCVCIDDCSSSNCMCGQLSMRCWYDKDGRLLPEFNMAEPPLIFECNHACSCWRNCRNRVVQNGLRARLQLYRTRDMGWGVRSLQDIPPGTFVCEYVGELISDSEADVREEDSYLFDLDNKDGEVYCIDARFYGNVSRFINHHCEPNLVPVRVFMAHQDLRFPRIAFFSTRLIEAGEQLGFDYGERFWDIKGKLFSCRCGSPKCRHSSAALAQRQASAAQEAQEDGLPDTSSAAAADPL

[7] = target: Protein arginine N-methyltransferase 8 (Homo sapiens, UniProt Q9NR22); assay: Selectivity interaction (Transferase panel (protein, RNA, and DNA methyltransferases. and EP300 (acetyltransferase))) EUB0000270b PRMT8
Protein arginine N-methyltransferase 8, sequence (Q9NR22 2-394 limits assumed): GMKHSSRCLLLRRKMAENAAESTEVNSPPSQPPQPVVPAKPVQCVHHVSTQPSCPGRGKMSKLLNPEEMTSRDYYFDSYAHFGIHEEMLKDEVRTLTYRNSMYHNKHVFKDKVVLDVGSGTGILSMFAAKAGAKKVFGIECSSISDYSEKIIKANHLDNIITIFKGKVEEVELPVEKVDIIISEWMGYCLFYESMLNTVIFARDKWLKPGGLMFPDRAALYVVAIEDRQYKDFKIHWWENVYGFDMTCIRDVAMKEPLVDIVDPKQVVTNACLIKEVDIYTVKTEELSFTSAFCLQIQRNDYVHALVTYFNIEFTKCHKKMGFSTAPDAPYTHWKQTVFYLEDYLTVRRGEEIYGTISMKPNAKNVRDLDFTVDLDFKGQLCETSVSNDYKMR

[8] = target: Mitogen-activated protein kinase kinase kinase kinase 4 (Homo sapiens, UniProt O95819); conditions: at 10 µM
Mitogen-activated protein kinase kinase kinase kinase 4, sequence (O95819 2-1239 limits assumed): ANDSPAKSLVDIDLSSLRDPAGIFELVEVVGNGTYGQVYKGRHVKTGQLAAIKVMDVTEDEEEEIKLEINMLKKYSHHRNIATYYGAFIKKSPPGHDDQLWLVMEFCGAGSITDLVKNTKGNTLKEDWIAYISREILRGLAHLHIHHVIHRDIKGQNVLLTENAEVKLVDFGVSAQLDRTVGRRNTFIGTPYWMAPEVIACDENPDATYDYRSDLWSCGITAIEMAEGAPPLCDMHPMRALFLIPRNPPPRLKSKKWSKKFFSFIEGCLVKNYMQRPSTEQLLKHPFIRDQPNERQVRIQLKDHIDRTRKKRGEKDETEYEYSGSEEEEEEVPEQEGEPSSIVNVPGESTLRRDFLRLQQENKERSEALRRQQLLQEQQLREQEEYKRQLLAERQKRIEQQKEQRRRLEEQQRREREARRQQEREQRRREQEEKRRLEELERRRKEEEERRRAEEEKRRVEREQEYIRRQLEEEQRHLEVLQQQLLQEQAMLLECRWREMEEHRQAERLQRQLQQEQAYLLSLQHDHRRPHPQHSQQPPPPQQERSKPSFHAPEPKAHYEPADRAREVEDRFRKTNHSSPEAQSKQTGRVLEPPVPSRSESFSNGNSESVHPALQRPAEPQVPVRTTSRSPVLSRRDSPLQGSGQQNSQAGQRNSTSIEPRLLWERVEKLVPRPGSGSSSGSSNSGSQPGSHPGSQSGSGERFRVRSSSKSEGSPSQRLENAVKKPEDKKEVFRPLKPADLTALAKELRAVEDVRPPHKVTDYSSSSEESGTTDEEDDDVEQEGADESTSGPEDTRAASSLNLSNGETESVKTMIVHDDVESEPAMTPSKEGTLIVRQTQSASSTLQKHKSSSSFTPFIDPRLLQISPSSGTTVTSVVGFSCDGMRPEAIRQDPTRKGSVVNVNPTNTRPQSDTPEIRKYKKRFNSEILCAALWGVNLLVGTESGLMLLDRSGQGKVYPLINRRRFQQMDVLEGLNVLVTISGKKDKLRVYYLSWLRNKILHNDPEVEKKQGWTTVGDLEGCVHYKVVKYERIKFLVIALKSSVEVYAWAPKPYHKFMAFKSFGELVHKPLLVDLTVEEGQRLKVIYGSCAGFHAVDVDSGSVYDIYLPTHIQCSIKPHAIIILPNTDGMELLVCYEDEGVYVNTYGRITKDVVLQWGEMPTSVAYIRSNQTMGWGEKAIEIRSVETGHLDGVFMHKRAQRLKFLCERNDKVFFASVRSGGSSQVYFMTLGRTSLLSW

[9] = target: T3, Calcium/calmodulin-dependent protein kinase type IV (Homo sapiens) (UniProt Q16566); assay: Selectivity interaction (KinomeScan (DiscoverX)) EUB0001619a CAMK4; conditions: at 1 µM
T3 sequence (whole entry): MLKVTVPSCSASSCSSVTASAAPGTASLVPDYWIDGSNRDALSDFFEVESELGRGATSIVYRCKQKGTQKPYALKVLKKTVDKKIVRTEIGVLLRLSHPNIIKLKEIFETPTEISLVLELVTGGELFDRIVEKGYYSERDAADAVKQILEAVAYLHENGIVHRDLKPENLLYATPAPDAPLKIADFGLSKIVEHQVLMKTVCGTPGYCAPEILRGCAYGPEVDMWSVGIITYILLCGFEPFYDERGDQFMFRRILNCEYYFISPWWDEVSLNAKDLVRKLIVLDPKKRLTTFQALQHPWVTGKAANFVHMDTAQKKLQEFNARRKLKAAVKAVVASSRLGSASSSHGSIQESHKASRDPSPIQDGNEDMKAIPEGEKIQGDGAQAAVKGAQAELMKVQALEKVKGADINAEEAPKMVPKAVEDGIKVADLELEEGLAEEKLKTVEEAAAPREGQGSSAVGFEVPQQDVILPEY

[10] = target: Receptor-interacting serine/threonine-protein kinase 3 (Homo sapiens) (UniProt Q9Y572); assay: Selectivity interaction (ActivX KiNativ screen (ex vivo kinase selectivity in human PBMCs)) EUB0001619a RIPK3; assay type: cell-based; conditions: PBMC, at 1 µM
Receptor-interacting serine/threonine-protein kinase 3 (Homo sapiens), sequence (Q9Y572 whole entry, looked up): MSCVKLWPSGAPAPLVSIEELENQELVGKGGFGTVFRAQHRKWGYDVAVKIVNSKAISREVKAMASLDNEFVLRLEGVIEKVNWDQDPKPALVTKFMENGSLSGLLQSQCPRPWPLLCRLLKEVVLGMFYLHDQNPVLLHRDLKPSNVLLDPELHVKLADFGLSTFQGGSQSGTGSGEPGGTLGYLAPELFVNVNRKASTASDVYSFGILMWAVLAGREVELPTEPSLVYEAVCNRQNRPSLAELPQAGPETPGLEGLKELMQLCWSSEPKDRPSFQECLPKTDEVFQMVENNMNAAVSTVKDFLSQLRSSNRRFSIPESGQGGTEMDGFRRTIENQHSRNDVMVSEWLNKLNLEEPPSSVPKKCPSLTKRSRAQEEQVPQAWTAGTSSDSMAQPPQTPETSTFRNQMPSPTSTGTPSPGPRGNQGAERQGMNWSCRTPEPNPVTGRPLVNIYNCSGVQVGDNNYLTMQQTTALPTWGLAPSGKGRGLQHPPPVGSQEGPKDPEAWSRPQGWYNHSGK

Ephrin type-A receptor 2 (Homo sapiens), sequence (P29317 whole entry): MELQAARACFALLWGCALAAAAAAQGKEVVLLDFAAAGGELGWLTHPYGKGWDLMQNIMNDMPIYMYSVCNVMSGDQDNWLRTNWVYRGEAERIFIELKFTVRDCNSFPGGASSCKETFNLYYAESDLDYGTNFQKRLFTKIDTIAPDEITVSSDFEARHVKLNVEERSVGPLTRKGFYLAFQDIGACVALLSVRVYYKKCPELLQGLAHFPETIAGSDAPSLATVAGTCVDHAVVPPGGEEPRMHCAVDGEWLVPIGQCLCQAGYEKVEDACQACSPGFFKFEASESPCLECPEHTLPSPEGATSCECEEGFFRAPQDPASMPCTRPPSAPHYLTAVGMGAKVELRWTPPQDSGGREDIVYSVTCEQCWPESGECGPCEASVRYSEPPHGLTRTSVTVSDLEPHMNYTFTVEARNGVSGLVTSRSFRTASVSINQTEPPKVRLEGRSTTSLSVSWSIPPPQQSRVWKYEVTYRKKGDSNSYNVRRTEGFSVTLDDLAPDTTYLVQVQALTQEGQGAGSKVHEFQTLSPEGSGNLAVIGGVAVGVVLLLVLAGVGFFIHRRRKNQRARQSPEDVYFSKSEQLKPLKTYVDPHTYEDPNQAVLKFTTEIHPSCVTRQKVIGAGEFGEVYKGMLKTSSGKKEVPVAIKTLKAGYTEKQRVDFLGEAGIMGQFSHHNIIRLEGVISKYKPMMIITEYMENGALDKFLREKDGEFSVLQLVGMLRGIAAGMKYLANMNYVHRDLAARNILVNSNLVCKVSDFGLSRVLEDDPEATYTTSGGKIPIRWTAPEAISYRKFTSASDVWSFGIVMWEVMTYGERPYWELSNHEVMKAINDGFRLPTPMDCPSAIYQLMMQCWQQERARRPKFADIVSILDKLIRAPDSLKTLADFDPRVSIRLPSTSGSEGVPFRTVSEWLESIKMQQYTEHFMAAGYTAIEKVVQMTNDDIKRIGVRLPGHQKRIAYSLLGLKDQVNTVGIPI

Compound: C=CC(=O)Nc1cc(-n2c(=O)ccc3cnc4ccc(-c5ccc(NS(C)(=O)=O)cc5)cc4c32)ccc1C
% of control ([5]; at 1 µM): 100%
% of control ([5]; at 10 µM): 100%

Compound: Cc1cc(CN)cc(C)c1-c1ncn(C)c1-c1cncn1C
% activity ([7]; at 1 µM): > 90%
% activity ([7]; at 10 µM): > 80%

Compound: Cc1cc([C@@H](C)Nc2ccccc2C(=O)O)c2nc(N3CCOCC3)cc(=O)n2c1 [AZD-6482]
% of control [8]: 97%

Compound: N#Cc1cccc(-c2c[nH]c3ncnc(N4CCOCC4)c23)c1
% of control [9]: 100%
% of inhibition [10]: 8%

The remaining lines, values ahead:

% of control [1]: 100%
Compound: CCN(CC)CCCCNc1ncc2cc(-c3cc(OC)cc(OC)c3)c(NC(=O)NC(C)(C)C)nc2n1

% of inhibition [2]: -17.7%
% of inhibition [3]: 58.6%
Compound: CC[C@@H]1[C@H](F)C(=O)N[C@@H]1COc1nccc2cc(C(N)=O)c(OC)cc12 [ZIMLOVISERTIB]

% of control ([4]; at 1 µM): 82%
% of control ([4]; at 5 µM): 39%
Compound: C=CC(=O)Nc1cccc(C(=O)Nc2ccc(Nc3cc(-c4[nH]c(SC)nc4C)ccn3)cc2)c1

% activity [6]: > 90%
Compound: CNCCN1CCC(c2cc(CN(C)C(=O)c3cccc(Oc4ccccc4)c3)ccn2)CC1
